Patent US6914045B2, “Glycopeptide antibiotics” (Wyeth Holdings Corporation, priority 2001, dated 2005)
≈ marks a conversion by molar mass, not a printed value.

Experiments:
Assay in all cases: in vitro antibacterial evaluation, MIC by broth dilution
Type in all cases: cell-based
Staphylococcus sp. = conditions: broth dilution, 18 hours at 35° C.; for MIC Staphylococcus aureus (GC 1131): strain GC 1131
Procedure, shortened: (§1)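 Read-out: the lowest concentration at which the test strain fails to grow. Serial dilutions (64-0.06 μg/mL) in Muller-Hinton II […], 5×10^5 CFU/mL inoculum, NCCLS M7-A2 procedure.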

Escherichia coli = tested on: Escherichia coli
Procedure, shortened: as §1

Streptococcus sp. = conditions: broth dilution, 18 hours at 35° C.
Procedure, shortened: as §1

Enterococcus sp. = conditions: broth dilution, 18 hours at 35° C.
Procedure, shortened: as §1

For `COc1cc(OC)cc(C2OC3C(OC4C(CO)OC(Oc5ccc(CC6NC(=O)C(C(C)c7ccccc7)NC(=O)CNC(=O)C(CO)NC(=O)C(C(O)C7CNC(=N)N7C7OC(CO)C(O)C(O)C7O)NC(=O)C(C(O)C7CNC(=N)N7)NC6=O)cc5)C(O)C4O)OC(CO)C(O)C3O2)c1` (stereo not drawn) [Example 150a], the “MIC Staphylococcus aureus (GC 1131)” value (Staphylococcus sp.; inoculum 5×10^5 CFU/mL) was 32 µg/mL (≈ 22.2 µM), the “MIC Staphylococcus aureus (ATCC 29213)” value (Staphylococcus sp.; strain ATCC 29213) was 32 µg/mL (≈ 22.2 µM) and the “MIC Staphylococcus aureus (GC 1131)” value (Staphylococcus sp.) was 32 µg/mL (≈ 22.2 µM). For the same molecule, the “MIC Staphylococcus aureus (GC 3051)” value (Staphylococcus sp.; strain GC 3051) was 32 µg/mL (≈ 22.2 µM), the “MIC Staphylococcus aureus (GC 3053)” value (Staphylococcus sp.; strain GC 3053) was 32 µg/mL (≈ 22.2 µM) and the “MIC Staphylococcus aureus (GC 4541)” value (Staphylococcus sp.; strain GC 4541) was 16 µg/mL (≈ 11.1 µM). For the same molecule, the “MIC Staphylococcus aureus (GC 4542)” value (Staphylococcus sp.; strain GC 4542) was 32 µg/mL (≈ 22.2 µM), the “MIC Staphylococcus aureus-SMITH (GC 4543)” value (Staphylococcus sp.; strain GC 4543) was 16 µg/mL (≈ 11.1 µM) and the “MIC Staphylococcus aureus (GC 4544)” value (Staphylococcus sp.; strain GC 4544) was 32 µg/mL (≈ 22.2 µM). The “MIC Staphylococcus aureus (GC 4545)” value (Staphylococcus sp.; strain GC 4545) was 16 µg/mL (≈ 11.1 µM), the “MIC Staphylococcus haemolyticus (GC 4546)” value (Staphylococcus sp.; strain GC 4546) was 16 µg/mL (≈ 11.1 µM) and the “MIC Coagulase Negative Staphylococcus (GC 4547)” value (Staphylococcus sp.; strain GC 4547) was 16 µg/mL (≈ 11.1 µM). The “MIC Coagulase Negative Staphylococcus (GC 4548)” value (Staphylococcus sp.; strain GC 4548) was 8 µg/mL (≈ 5.54 µM), the “MIC Coagulase Negative Staphylococcus (GC 4549)” value (Staphylococcus sp.; strain GC 4549) was 8 µg/mL (≈ 5.54 µM) and the “MIC Coagulase Negative Staphylococcus (GC 4551)” value (Staphylococcus sp.; strain GC 4551) was 32 µg/mL (≈ 22.2 µM). The “MIC Coagulase Negative Staphylococcus (GC 6257)” value (Staphylococcus sp.; strain GC 6257) was 8 µg/mL (≈ 5.54 µM), the “MIC Staphylococcus aureus-SMITH (GC 4543)” value (Staphylococcus sp.; strain SMITH GC 4543) was 16 µg/mL (≈ 11.1 µM) and the “MIC Escherichia coli (ATCC 25922)” value (Escherichia coli; strain ATCC 25922, 18 hours at 35° C.) was >64 µg/mL. For the same molecule, the “MIC Escherichia coli (GC 4559)” value (Escherichia coli; strain GC 4559, 18 hours at 35° C.) was >64 µg/mL, the “MIC Escherichia coli (GC 4560)” value (Escherichia coli; strain GC 4560, 18 hours at 35° C.) was 16 µg/mL (≈ 11.1 µM) and the “MIC Streptococcus agalactiae (GC 4564)” value (Streptococcus sp.; Streptococcus agalactiae (GC 4564)) was 32 µg/mL (≈ 22.2 µM). For the same molecule, the “MIC Streptococcus pneumoniae (ATCC 6301)” value (Streptococcus sp.; Streptococcus pneumoniae (ATCC 6301)) was 8 µg/mL (≈ 5.54 µM), the “MIC Streptococcus pneumoniae (GC 1894)” value (Streptococcus sp.; Streptococcus pneumoniae (GC 1894)) was 8 µg/mL (≈ 5.54 µM) and the “MIC Streptococcus pneumoniae (GC 4565)” value (Streptococcus sp.; Streptococcus pneumoniae (GC 4565)) was 16 µg/mL (≈ 11.1 µM). The “MIC Streptococcus pyogenes (GC 4563)” value (Streptococcus sp.; Streptococcus pyogenes (GC 4563)) was 16 µg/mL (≈ 11.1 µM), the “MIC Streptococcus pneumoniae (ATCC 6301)” value (Streptococcus sp.; strain ATCC 6301) was 8 µg/mL (≈ 5.54 µM) and the “MIC Streptococcus pneumoniae (GC 1894)” value (Streptococcus sp.; strain GC 1894) was 8 µg/mL (≈ 5.54 µM). For the same molecule, the “MIC Streptococcus pyogenes (GC 4563)” value (Streptococcus sp.; strain GC 4563) was 16 µg/mL (≈ 11.1 µM), the “MIC Streptococcus agalactiae (GC 4564)” value (Streptococcus sp.; strain GC 4564) was 32 µg/mL (≈ 22.2 µM) and the “MIC Streptococcus pneumoniae (GC 4565)” value (Streptococcus sp.; strain GC 4565) was 16 µg/mL (≈ 11.1 µM). The “MIC Enterococcus avium (GC 4558)” value (Enterococcus sp.; Enterococcus avium (GC 4558)) was 64 µg/mL (≈ 44.3 µM), the “MIC Enterococcus faecalis (ATCC 29212)” value (Enterococcus sp.; Enterococcus faecalis (ATCC 29212)) was >64 µg/mL and the “MIC Enterococcus faecalis (GC 2242)” value (Enterococcus sp.; Enterococcus faecalis (GC 2242)) was >64 µg/mL. The “MIC Enterococcus faecalis (GC 2691)” value (Enterococcus sp.; Enterococcus faecalis (GC 2691)) was >64 µg/mL, the “MIC Enterococcus faecalis (GC 3059)” value (Enterococcus sp.; Enterococcus faecalis (GC 3059)) was >64 µg/mL and the “MIC Enterococcus faecalis (GC 4552)” value (Enterococcus sp.; Enterococcus faecalis (GC 4552)) was >64 µg/mL. The “MIC Enterococcus faecalis (GC 4553)” value (Enterococcus sp.; Enterococcus faecalis (GC 4553)) was >64 µg/mL, the “MIC Enterococcus faecalis (GC 4554)” value (Enterococcus sp.; Enterococcus faecalis (GC 4554)) was >64 µg/mL and the “MIC Enterococcus faecalis (GC 6189)” value (Enterococcus sp.; Enterococcus faecalis (GC 6189)) was >64 µg/mL. For the same molecule, the “MIC Enterococcus faecium (GC 2243)” value (Enterococcus sp.; Enterococcus faecium (GC 2243)) was >64 µg/mL, the “MIC Enterococcus faecium (GC 4556)” value (Enterococcus sp.; Enterococcus faecium (GC 4556)) was >64 µg/mL and the “MIC Enterococcus faecium (GC 4557)” value (Enterococcus sp.; Enterococcus faecium (GC 4557)) was 16 µg/mL (≈ 11.1 µM). For the same molecule, the “MIC Enterococcus faecalis (ATCC 29212)” value (Enterococcus sp.; strain ATCC 29212) was >64 µg/mL, the “MIC Enterococcus faecalis (GC 2242)” value (Enterococcus sp.; strain GC 2242) was >64 µg/mL and the “MIC Enterococcus faecium (GC 2243)” value (Enterococcus sp.; strain GC 2243) was >64 µg/mL. The “MIC Enterococcus faecalis (GC 2691)” value (Enterococcus sp.; strain GC 2691) was >64 µg/mL, the “MIC Enterococcus faecalis (GC 3059)” value (Enterococcus sp.; strain GC 3059) was >64 µg/mL and the “MIC Enterococcus faecalis (GC 4552)” value (Enterococcus sp.; strain GC 4552) was >64 µg/mL. For the same molecule, the “MIC Enterococcus faecalis (GC 4553)” value (Enterococcus sp.; strain GC 4553) was >64 µg/mL, the “MIC Enterococcus faecalis (GC 4554)” value (Enterococcus sp.; strain GC 4554) was >64 µg/mL and the “MIC Enterococcus faecium (GC 4556)” value (Enterococcus sp.; strain GC 4556) was >64 µg/mL. The “MIC Enterococcus faecium (GC 4557)” value (Enterococcus sp.; strain GC 4557) was 16 µg/mL (≈ 11.1 µM), the “MIC Enterococcus avium (GC 4558)” value (Enterococcus sp.; strain GC 4558) was 64 µg/mL (≈ 44.3 µM) and the “MIC Enterococcus faecalis (GC 6189)” value (Enterococcus sp.; strain GC 6189) was >64 µg/mL.
